These results are taken from patent publication US10828281B2, “Non-hydrophobic compounds for use in treating metastasis and/or cartilage defect” (Friedrich-Alexander-Universität Erlangen-Nürnberg, priority 2015, dated 2020).

“Also recorded” adds a separate entry of the source.

Data set [1] has as its target T1, MIA-MIA interaction (Homo sapiens, UniProt Q16674).
T1 sequence (Q16674 25-131): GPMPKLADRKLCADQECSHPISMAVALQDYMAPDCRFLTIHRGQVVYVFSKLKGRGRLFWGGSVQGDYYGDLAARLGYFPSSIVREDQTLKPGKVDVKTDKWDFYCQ
The data set is described as follows: heterogeneous transition metal-based fluorescence polarization (HTFP) assay of MIA dimerization. The class given is binding. As to conditions: FIG. 3. The protocol:
The dimerization of the MIA protein is for example measured by a heterogeneous transition metal-based fluorescence polarization (HTFP) assay, wherein the ratio P/P0 is measured. P is the fluorescence polarization signal of a MIA protein labeled with a transition metal complex in the presence of substrate bound MIA-protein and of a compound to be tested. P0 is the fluorescence polarization signal of free MIA-protein labeled with said luminescent transition metal complex in the absence of substrate bound MIA-protein and in the absence of the compound. In the absence of the compound, usually, the labeled MIA-protein would interact with the substrate bound MIA-protein, which, in turn, would contribute to a reduction in rotational mobility of the labeled MIA-protein, and therefore, the fluorescence polarization signal would increase upon such interaction. If, additionally, a compound is present that interferes with such interaction, no or little dimerization/aggregation occurs and no or little increase in fluorescence polarization signal would be detected. The smaller or even more negative P/P0 is, the stronger such interference with dimer formation and aggregation is, and the better such compound prevents or breaks up dimerization/aggregation of MIA protein. In an alternative embodiment, binding of the compound to MIA protein is determined by NMR, e.g., heteronuclear NMR, e.g., ^15N-^1H-HSQC-NMR.
All listed compounds that were screened for their ability to interfere with the MIA-MIA interaction (Table 1) in a heterogeneous transition metal-based fluorescence polarization (HTFP) assay previously developed (Riechers, A., et al., Heterogeneous transition metal-based fluorescence polarization (HTFP) assay for probing protein interactions. Biotechniques, 2009. 47(4): p. 837-44). […] The molecular structures of the compounds showing interference with the MIA-MIA interaction in the HTFP assay are shown in Table 1.
On the technique in general: Polarisation of emitted light reports the rotation of a fluorescent probe.

Data set [2] relates to human fibroblasts. The experiment in a line: cellular attachment of human fibroblasts. The class given is cell-based. The following applies: 7.8 μM, in vitro, FIG. 5B. The protocol:
(§1) In order to assess whether compounds of the present invention show any adverse effects on normal cells, human fibroblasts and kidney cells were treated with the compounds 1, 2, 3, 4, 5, and 6, respectively, in vitro at a concentration of 7.8 μM in analogy to previous studies (Schmidt, J., et al., Targeting melanoma metastasis and immunosuppression with a new mode of melanoma inhibitory activity (MIA) protein inhibition. PLoS One, 2012. 7(5): p. e37941; Riechers, A., et al., Heterogeneous transition metal-based fluorescence polarization (HTFP) assay for probing protein interactions. Biotechniques, 2009. 47(4): p. 837-44).

Data set [3] concerns human Mel-Im melanoma cells. The experiment in a line: Boyden chamber migration assay. The following applies: compound 1 μM, MIA 200 ng/mL, FIG. 4. In kind it is cell-based. As for the experimental part:
The melanoma cell line Mel-Im, established from a human metastatic bioptic sample (generous gift from Dr. Johnson, University of Munich, Germany) was used for the Boyden chamber migration experiments. All cells were maintained in DMEM (PAA, Pasching, Germany) supplemented with penicillin (400 U/mL), streptomycin (50 μg/mL), L-glutamine (300 μg/mL) and 10% fetal calf serum (Pan Biotech GmbH, Aidenbach, Germany) and split in a 1:6 ratio every three days. Migration assays were performed in Boyden Chambers containing polycarbonate filters with […] (Neuro Probe, Gaithersburg, Md., USA) essentially as described. MIA was added to the cell suspension at a final concentration of 200 ng/mL. Selected compounds were used at a final concentration of 1 μM. Experiments were carried out in triplicates and repeated at least three times.

The subject of data set [4] is kidney cells HEK-293. The data set is described as follows: cellular attachment of kidney cells. The class given is cell-based, human. As to conditions: 7.8 μM, in vitro, HEK-293, FIG. 5D. The protocol: as §1
The subject of data set [5] is human fibroblasts. The experiment in a line: proliferation of human fibroblasts. The following applies: 7.8 μM, in vitro, FIG. 5A. The class given is cell-based. The protocol:
as §1

The subject of data set [6] is kidney cells HEK-293. The data set is described as follows: proliferation of kidney cells. In kind it is cell-based, human. The following applies: 7.8 μM, in vitro, HEK-293, FIG. 5C. As for the experimental part:
as §1

Data set [7] has as its system human melanoma cell line Mel Im. The data set is described as follows: proliferation of melanoma cell line Mel Im. The following applies: FIG. 6. In kind it is cell-based.
Data set [8] has as its target T1, MIA-MIA interaction. As to conditions: disclosed in WO 2011/113604; cited from earlier work.

For `CCC(C)N1CC(=O)C(c2nc3ccccc3[nH]2)=C1N` (stereo not shown) [Compound 1, 5-amino-4-(1H-1,3-benzodiazol-2-yl)-1-(butan-2-yl)-2,3-dihydro-1H-pyrrol-3-one], at MIA-MIA interaction [1], the “fluorescence polarization of Ru-(bpy)3 labelled MIA (interference with the MIA-MIA interaction)” value (“fluorescence polarization” below) was “significant decreases”. Also, the “effect on cellular attachment of human fibroblasts” value in the data set on human fibroblasts [2] is recorded as “no negative effects”. In addition, the “MIA activity on melanoma cell migration” value in data set [3] was “reduction; also recorded: inhibition”. In the data set with kidney cells HEK-293 [4], the “effect on cellular attachment of kidney cells” value was “no negative effects”. The “effect on proliferation of human fibroblasts” value in the data set with human fibroblasts [5] is listed as “no negative effects”. Also, the “effect on proliferation of kidney cells” value in the data set with kidney cells HEK-293 [6] is reported as “no negative effects”. Further, the “proliferation of the human melanoma cell line Mel Im after treatment” value (“proliferation … after treatment” below) in data set [7] is given as “significant decrease; also recorded: inhibition”.
On to `CCCCNC(=O)c1c(O)nc2c(C)cccn2c1=O` [Compound 6, N-butyl-2-hydroxy-9-methyl-4-oxo-4H-pyrido[1,2-a]pyrimidine-3-carboxamide], for which the “fluorescence polarization” value on MIA-MIA interaction [1] is recorded as “significant decreases”. Further, the “effect on cellular attachment of human fibroblasts” value with human fibroblasts [2] was “no negative effects”. In addition, the “MIA activity on melanoma cell migration” value in data set [3] is recorded as “reduction”. For the same compound, in the data set on kidney cells HEK-293 [4], the “effect on cellular attachment of kidney cells” value is recorded as “no negative effects”. The “effect on proliferation of human fibroblasts” value in the data set on human fibroblasts [5] is reported as “no negative effects”. In the data set with kidney cells HEK-293 [6], the “effect on proliferation of kidney cells” value is listed as “no negative effects”. Also, the “proliferation … after treatment” value in data set [7] is “could not be found”.
Consider “AR71: a peptide having the amino acid sequence FHWRYPLPLPGQ (SEQ ID NO:1)”, for which, in the data set with MIA-MIA interaction [8], the “blocking of the MIA-MIA interaction” value was “able to block the MIA-MIA interaction”.
Take `CS(=O)(=O)NCC#CCN1CCc2ccccc2C1` [Compound 2, N-[4-(1,2,3,4-tetrahydroisoquinolin-2-yl)but-2-yn-1-yl]methanesulfonamide]: the “fluorescence polarization” value on MIA-MIA interaction [1] is recorded as “significant decreases”. In addition, the “effect on cellular attachment of human fibroblasts” value in the data set with human fibroblasts [2] was “no negative effects”. In data set [3], the “MIA activity on melanoma cell migration” value is on record as “reduction; also recorded: inhibition”. Moreover, in the data set with kidney cells HEK-293 [4], the “effect on cellular attachment of kidney cells” value was “no negative effects”. The “effect on proliferation of human fibroblasts” value with human fibroblasts [5] is “no negative effects”. Also, the “effect on proliferation of kidney cells” value in the data set on kidney cells HEK-293 [6] is “no negative effects”. In addition, in data set [7], the “proliferation … after treatment” value is given as “could not be found”.
Turning to `COc1ccc2[nH]c(CN3CCNCC3)nc2c1` [Compound 5, 5-methoxy-2-(piperazin-1-ylmethyl)-1H-1,3-Benzodiazole], the “fluorescence polarization” value on MIA-MIA interaction [1] is “significant decreases”. The “effect on cellular attachment of human fibroblasts” value with human fibroblasts [2] is “no negative effects”. Further, the “MIA activity on melanoma cell migration” value in data set [3] is on record as “reduction”. The “effect on cellular attachment of kidney cells” value in the data set on kidney cells HEK-293 [4] is given as “no negative effects”. In addition, the “effect on proliferation of human fibroblasts” value in the data set on human fibroblasts [5] is recorded as “no negative effects”. The “effect on proliferation of kidney cells” value with kidney cells HEK-293 [6] is on record as “no negative effects”. Further, the “proliferation … after treatment” value in data set [7] was “could not be found”.
Consider `CC(=O)c1c(C)cn(CC(O)CN2CCNCC2)c1C` (stereo not shown) [Compound 4, 1-{1-[2-hydroxy-3-(piperazin-1-yl)propyl]-2,4-dimethyl-1H-pyrrol-3-yl}ethan-1-one], for which the “fluorescence polarization” value on MIA-MIA interaction [1] was “significant decreases”. Also, the “effect on cellular attachment of human fibroblasts” value with human fibroblasts [2] was “no negative effects”. The “MIA activity on melanoma cell migration” value in data set [3] is “reduction”. In the data set with kidney cells HEK-293 [4], the “effect on cellular attachment of kidney cells” value is “no negative effects”. Further, the “effect on proliferation of human fibroblasts” value in the data set with human fibroblasts [5] was “no negative effects”. Besides, the “effect on proliferation of kidney cells” value with kidney cells HEK-293 [6] is reported as “no negative effects”. The “proliferation … after treatment” value in data set [7] is listed as “could not be found”.
Regarding `CCCCCNC(=O)Cc1cc(=O)[nH]c(=O)[nH]1` [Compound 3, 2-(2,6-dioxo-1,2,3,6-tetrahydropyrimidin-4-yl)-N-Pentylacetamide], the “fluorescence polarization” value at MIA-MIA interaction [1] is listed as “significant decreases”. The “effect on cellular attachment of human fibroblasts” value in the data set on human fibroblasts [2] was “no negative effects”. Moreover, the “MIA activity on melanoma cell migration” value in data set [3] is listed as “reduction; also recorded: inhibition”. The “effect on cellular attachment of kidney cells” value in the data set on kidney cells HEK-293 [4] is “no negative effects”. Also, in the data set on human fibroblasts [5], the “effect on proliferation of human fibroblasts” value was “no negative effects”. In the data set with kidney cells HEK-293 [6], the “effect on proliferation of kidney cells” value is on record as “no negative effects”. In addition, the “proliferation … after treatment” value in data set [7] is recorded as “could not be found”.
